What was measured:
tau protein = biological target: T1, tau protein (Homo sapiens, UniProt P10636); assay: Tau-BiFC cell model, inhibition of Forskolin-induced tau protein aggregation; assay type: cell-based; conditions: Forskolin 30 μM, 48 hours; for Tau BiFC in cells Response (% @10 μM): 10 μM compound, Forskolin-only group = 100% tau protein-aggregated state; for IC50: tau-BiFC cells
T1 construct: BiFC fluorescent-protein fragments (type and halves not specified); expressed in transfected cells
T1 sequence (P10636 1-441 isoform P10636-8): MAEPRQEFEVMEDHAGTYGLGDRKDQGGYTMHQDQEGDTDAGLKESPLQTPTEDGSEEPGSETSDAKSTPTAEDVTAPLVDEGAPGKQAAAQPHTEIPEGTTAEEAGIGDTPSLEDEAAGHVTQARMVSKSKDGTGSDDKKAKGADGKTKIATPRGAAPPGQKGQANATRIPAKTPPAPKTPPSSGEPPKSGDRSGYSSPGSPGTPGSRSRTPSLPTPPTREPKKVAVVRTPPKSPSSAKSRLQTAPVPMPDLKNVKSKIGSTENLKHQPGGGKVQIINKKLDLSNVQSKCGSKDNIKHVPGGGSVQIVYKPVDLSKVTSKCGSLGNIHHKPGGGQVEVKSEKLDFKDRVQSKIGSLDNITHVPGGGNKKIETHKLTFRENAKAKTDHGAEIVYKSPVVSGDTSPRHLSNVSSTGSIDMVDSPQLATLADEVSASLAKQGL
Description: In order to select novel tau protein aggregation-inhibiting substances, tau-BiFC cell model, in which formation of tau oligomers in living cells is easily observed, was used. Tau-BiFC cells were aliquoted into a 384-well plate. On the next day, the cells were treated with each of the compounds prepared according to Examples 1 to 57 at concentrations of 1 μM, 3 μM, and 10 μM, together with Forskolin (at a treatment concentration of 30 μM), which is a compound inducing tau protein aggregation by activating tau phosphorylase PKA. After 48 hours, nuclei in the cells were stained using Hoechst (at a treatment concentration of 2 μg/mL), and BiFC fluorescence intensity was automatically measured using Operetta (PerkinElmer) to count stained nuclei in each well out of the entire well plate. The group treated only with Forskolin, which induces tau protein aggregation, was set to a reference point of a 100% tau protein-aggregated state, and the effects of the compounds were confirmed using the equation “BiFC fluorescence intensity due to compound synthesized according to embodiment of present invention/(fluorescence intensity of control group treated only with Forskolin inducing tau protein aggregation−fluorescence intensity of untreated control group)×100”. Furthermore, the degree of cytotoxicity induced by the newly synthesized compound was also measured based on the 100% cell viability of the group treated only with Forskolin as a reference, and the cytotoxicity value of each compound was calculated using the equation “(number of stained nuclei in group treated with compound/number of stained nuclei in group treated with Forskolin)×100”. Based on the treatment results, substances inhibiting intracellular tau protein aggregation were selected from a series of candidate groups showing a tau protein aggregation inhibition rate of 70% or more and cell viability of 100% at a compound treatment concentration of 10 μM or more.
In order to evaluate dose-dependent tau protein aggregation inhibition effects of the compounds selected according to Experimental Example 1 on tau protein aggregation, tau-BiFC cells were treated with the selected compounds at concentrations of 0.03 μM, […], 0.3 μM, 1 μM, 3 μM, 10 μM, and 30 μM, respectively, together with Forskolin (at a treatment concentration of 30 μM), which is a tau protein aggregation-inducing substance. After 48 hours, tau protein aggregation reaction and degrees of cytotoxicity were analyzed by observing images of the cells. IC50 and toxicity of the compounds were analyzed by way of nonlinear regression analysis of prism software (Graph Pad).

Tau-BiFC cells = assay: Cell viability (stained nuclei count) in Tau-BiFC cells; assay type: cell-based; conditions: 10 μM compound, 48 hours; Forskolin-only group = 100% cell viability
Description: In order to select novel tau protein aggregation-inhibiting substances, tau-BiFC cell model, in which formation of tau oligomers in living cells is easily observed, was used. Tau-BiFC cells were aliquoted into a 384-well plate. On the next day, the cells were treated with each of the compounds prepared according to Examples 1 to 57 at concentrations of 1 μM, 3 μM, and 10 μM, together with Forskolin (at a treatment concentration of 30 μM), which is a compound inducing tau protein aggregation by activating tau phosphorylase PKA. After 48 hours, nuclei in the cells were stained using Hoechst (at a treatment concentration of 2 μg/mL), and BiFC fluorescence intensity was automatically measured using Operetta (PerkinElmer) to count stained nuclei in each well out of the entire well plate. The group treated only with Forskolin, which induces tau protein aggregation, was set to a reference point of a 100% tau protein-aggregated state, and the effects of the compounds were confirmed using the equation “BiFC fluorescence intensity due to compound synthesized according to embodiment of present invention/(fluorescence intensity of control group treated only with Forskolin inducing tau protein aggregation−fluorescence intensity of untreated control group)×100”. Furthermore, the degree of cytotoxicity induced by the newly synthesized compound was also measured based on the 100% cell viability of the group treated only with Forskolin as a reference, and the cytotoxicity value of each compound was calculated using the equation “(number of stained nuclei in group treated with compound/number of stained nuclei in group treated with Forskolin)×100”. Based on the treatment results, substances inhibiting intracellular tau protein aggregation were selected from a series of candidate groups showing a tau protein aggregation inhibition rate of 70% or more and cell viability of 100% at a compound treatment concentration of 10 μM or more. […]

Compound	Tau BiFC in cells Response (% @10 μM) (tau protein) [%]	IC50 (tau protein) [nM]	Cell viability (% @10 μM) (Tau-BiFC cells) [%]
N#CC(C#N)=NNc1ccc2cc[nH]c(=O)c2c1 [Compound 1, (1-oxo-1,2-dihydroisoquinolin-7-yl)carbonohydrazonoyl dicyanide]	0	130	152.9
N#CC(C#N)=NNc1ccc2[nH]c(=O)ccc2c1 [Compound 8, (2-oxo-1,2-dihydroquinolin-6-yl)carbonohydrazonoyl dicyanide]	0	430	152.5
Cn1c(=O)n(C)c2cc(NN=C(C#N)C#N)c(F)cc21 [Compound 9, (6-fluoro-1,3-dimethyl-2-oxo-2,3-dihydro-1H-benzo[d]imidazol-5-yl)carbonohydrazonoyl dicyanide]	0	170	155.3
Cn1c(=O)ccc2cc(NN=C(C#N)C#N)ccc21 [Compound 25, (1-methyl-2-oxo-1,2-dihydroquinolin-6-yl)carbonohydrazonoyl dicyanide]	−16	20	118
Cc1cc(=O)[nH]c2ccc(NN=C(C#N)C#N)cc12 [Compound 26, (4-methyl-2-oxo-1,2-dihydroquinolin-6-yl)carbonohydrazonoyl dicyanide]	−5	770	120
Cn1c(=O)oc2ccc(NN=C(C#N)C#N)cc21 [Compound 28, (3-methyl-2-oxo-2,3-dihydrobenzo[d]oxazol-5-yl)carbonohydrazonoyl dicyanide]	13	–	134
N#CC(C#N)=NNc1ccc2oc(=O)n(C(F)F)c2c1 [Compound 30, (3-(difluoromethyl)-2-oxo-2,3-dihydrobenzo[d]oxazol-5-yl)carbonohydrazonoyl dicyanide]	36	–	127
Cc1cc2c(cc1NN=C(C#N)C#N)n(C)c(=O)n2C [Compound 31, (1,3,6-trimethyl-2-oxo-2,3-dihydro-1H-benzo[d]imidazol-5-yl)carbonohydrazonoyl dicyanide]	47	–	119
COc1cc2c(cc1NN=C(C#N)C#N)n(C)c(=O)n2C [Compound 32, (6-methoxy-1,3-dimethyl-2-oxo-2,3-dihydro-1H-benzo[d]imidazol-5-yl)carbonohydrazonoyl dicyanide]	38	–	132
CCn1c(=O)n(C(F)F)c2cc(NN=C(C#N)C#N)ccc21 [Compound 39, (3-(difluoromethyl)-1-ethyl-2-oxo-2,3-dihydro-1H-benzo[d]imidazol-5-yl)carbonohydrazonoyl dicyanide]	−45	10	106
Cn1c(=O)n(C2CC2)c2ccc(NN=C(C#N)C#N)cc21 [Compound 40, (1-cyclopropyl-3-methyl-2-oxo-2,3-dihydro-1H-benzo[d]imidazol-5-yl)carbonohydrazonoyl dicyanide]	−38	30	122
CCn1c(=O)n(C2CC2)c2ccc(NN=C(C#N)C#N)cc21 [Compound 41, (1-cyclopropyl-3-ethyl-2-oxo-2,3-dihydro-1H-benzo[d]imidazol-5-yl)carbonohydrazonoyl dicyanide]	−54	20	112
CCn1c(=O)n(C)c2ncc(NN=C(C#N)C#N)cc21 [Compound 44, (1-ethyl-3-methyl-2-oxo-2,3-dihydro-1H-imidazo[4,5-b]pyridin-6-yl)carbonohydrazonoyl dicyanide]	10	–	138
CC(C)n1c(=O)n(C)c2ncc(NN=C(C#N)C#N)cc21 [Compound 45, (1-isopropyl-3-methyl-2-oxo-2,3-dihydro-1H-imidazo[4,5-b]pyridin-6-yl)carbonohydrazonoyl dicyanide]	−24	200	113
Cn1c(=O)n(C(F)F)c2cc(NN=C(C#N)C#N)cnc21 [Compound 46, (1-(difluoromethyl)-3-methyl-2-oxo-2,3-dihydro-1H-imidazo[4,5-b]pyridin-6-yl)carbonohydrazonoyl dicyanide]	23	–	131
Cn1c(=O)n(-c2ccccc2)c2cc(NN=C(C#N)C#N)cnc21 [Compound 47, (3-methyl-2-oxo-1-phenyl-2,3-dihydro-1H-imidazo[4,5-b]pyridin-6-yl)carbonohydrazonoyl dicyanide]	13	–	117
CCn1c(=O)n(C(C)C)c2cc(NN=C(C#N)C#N)cnc21 [Compound 49, (3-ethyl-1-isopropyl-2-oxo-2,3-dihydro-1H-imidazo[4,5-b]pyridin-6-yl)carbonohydrazonoyl dicyanide]	−34	50	139
CCn1c(=O)n(C(F)F)c2cc(NN=C(C#N)C#N)cnc21 [Compound 50, (1-(difluoromethyl)-3-ethyl-2-oxo-2,3-dihydro-1H-imidazo[4,5-b]pyridin-6-yl)carbonohydrazonoyl dicyanide]	2	–	119
Cn1c(=O)n(C2CC2)c2ncc(NN=C(C#N)C#N)cc21 [Compound 51, (3-cyclopropyl-1-methyl-2-oxo-2,3-dihydro-1H-imidazo[4,5-b]pyridin-6-yl)carbonohydrazonoyl dicyanide]	−11	660	137
CCn1c(=O)n(C2CC2)c2ncc(NN=C(C#N)C#N)cc21 [Compound 52, (3-cyclopropyl-1-ethyl-2-oxo-2,3-dihydro-1H-imidazo[4,5-b]pyridin-6-yl)carbonohydrazonoyl dicyanide]	−30	200	133
CC(C)n1c(=O)n(C)c2cc(NN=C(C#N)C#N)cnc21 [Compound 54, (3-isopropyl-1-methyl-2-oxo-2,3-dihydro-1H-imidazo[4,5-b]pyridin-6-yl)carbonohydrazonoyl dicyanide]	−38	300	118

Source: patent publication US12590066B2, “Fused-heterocyclyl-carbonohydrazonoyl dicyanide compounds and use thereof” (KOREA INSTITUTE OF SCIENCE AND TECHNOLOGY, priority 2020, dated 2026)
